Assay results reported in patent publication US20220034873A1, “POLYMERIC CHROMOPHORES, COMPOSITIONS COMPRISING THE SAME, AND METHODS OF PREPARING AND USING THE SAME” (North Carolina State University, priority 2018, published 2022).
One block for each molecule: values may come before it.

How the values were obtained:
[1] = Absorption and emission spectra of dyes D1-D3 and dye-loaded copolymers F1-F3; type: physicochemical
Description: Measurements of Absorption and Emission Spectra. The target dye-loaded copolymers F1-F3 were then subjected to investigations of their spectroscopic properties in both organic solvents and aqueous solution. […] Attaching to the 120-kDa amphiphilic copolymer drastically enhances the water solubility of BODIPY D1 and chlorin D2 without strong perturbation on the spectroscopic properties. The emission band for F1 and F2 in water remains the same as the ones measured in organic solutions, showing minimal dye-dye interaction is involved in aqueous solution of F1 and F2 at μM concentration. […] This negative result may be because of the inappropriate size of the copolymer backbone. Larger polymers may be required to encapsulate large hydrophobic chromophores like the phthalocyanine D3.
General Methods. All chemicals obtained commercially were used as received unless otherwise noted. Reagent-grade solvents (CH2Cl2, THF, methanol) and HPLC-grade water were used as received. NMR data was measured in a solution of CDCl3 unless otherwise noted. Noncommercial compounds 1, 2, and 4 were prepared following literature procedures. Analytical SEC experiments were performed with PLgel 10000 Å SEC column, eluted with ACS grade THF (stablized with 400 ppm of BHT) at 35° C. with a flow rate at 1 mL/min. Samples were detected with Agilent 1260 infinity refractive index detector. Absorption spectra were measured on Agilent 8453 and Shimadzu UV1800 instruments using dilute […] solutions of the compound in UV transparent (e.g., quartz) cuvettes versus a solvent blank at room temperature.

[2] = cited from earlier work

λabs max ([1]; in CH2Cl2, room temperature): 543 nm
SMILES: Cc1cc(C)c(C2=C3C=CC=[N+]3[B-](F)(F)n3cc(C#CCCCCC(=O)NN)cc32)c(C)c1 [Polymer D1, 2-[6-(N-Aminocarbamoyl)hex-1-yn-1-yl]-8-mesityl-4,4-difluoro-4-bora-3a,4a-diaza-s-indacene]

SMILES: CCN(CC)c1ccc2c(c1)Oc1cc(N(CC)CC)ccc1C21c2ccccc2C(=O)N1N [Rhodamine-B hydrazide]
change in absorption or fluorescence spectra ([2]; only with Cu(II) and Hg(II) among the cations tested, aqueous solution): significant change in absorption or fluorescence spectra | Cu(II) concentration detected quantitatively ([2]; selective detection of Cu(II) in aqueous solution): 10^−7 M

λabs max ([1]; in toluene): 702 nm
SMILES: CCCCCCCc1cc2c(cc1CCCCCCC)-c1nc-2nc2[nH]c(nc3nc(nc4[nH]c(n1)c1cc(CCCCCCC)c(CCCCCCC)cc41)-c1cc(C#Cc4ccc(CC(=O)NN)cc4)ccc1-3)c1cc(CCCCCCC)c(CCCCCCC)cc21 [Polymer D3, 2-[4-(N-Aminocarbamoyl)methylphenylethynyl]-9,10,16,17,23,24-hexaheptylphthalocyanine]

λabs max ([1]; in CH2Cl2, room temperature): 640 nm
SMILES: Cc1cc(C)c(-c2c3nc(c(-c4ccc(C(=O)NN)cc4)c4ccc(cc5nc(cc6ccc2[nH]6)CC5(C)C)[nH]4)C=C3)c(C)c1 [Polymer D2, 5-[4-(N-Aminocarbamoyl)phenyl]-10-Mesityl-18,18-dimethylchlorin]
